Among the data in patent US5135928A, “Triazolo derivatives and process for their preparation” (Egis Gyogyszergyar, priority 1989, dated 1992) are ED50 and Therapeutical index values, retold here.

For data set [1], the system named is rats. Nature of the data set: Antianginal effect (vasopressin-induced experimental coronaria insufficiency, height of wave T in ECG). It counts as in vivo. The note with it: Rattus norvegicus, iv, 2 minutes prior to vasopressin i.v.; narcotised male rats 180-220 g. The method, then:
Male rats of 180-220 g body weight were narcotised with chloralese-urethane(70/700 mg/kg ip.). The ECG was registered with needle electrodes in standard II leading. The experimental coronaria insufficiency was induced with vasopressin (4 NE/kg i.v.). The height of wave T in ECG was measured before and after the administration of vasopressin in both the control and treated groups. Test compounds were administered intravenously 2 minutes prior to the treatment with vasopressin.

The subject of data set [2] is mice. In words: Hexobarbital narcosis on mice. It counts as in vivo. The note with it: oral; for ED50: Mus musculus, 1 hour before Hexobarbital 40 mg/kg i.v., positive = sleeping time more than 2.5 times longer than control; for Therapeutical index: Hexobarbital narcosis. The method, then: 1. Hexobarbital narcosis on mice
Method: Kaergaard, Arch. Int. Pharmacodyn. 2, 170, (1967)
Groups consisting of 6 mice are used for each dose. The animals are treated orally with the test compound (the control group receives a vehicle), whereby sleeping is induced 1 hour later by administering a 40 mg/kg i.v. dose of Hexobarbital both to the test and control groups.
Animals which have a sleeping time more than 2.5 times longer than that of the control group are considered to show a positive reaction. ED50 values are calculated from the thus-transformed data.

By ED50 is commonly meant the midpoint of the dose-response relation. Regarding `CC(Cc1ccccc1)NCCC(c1ccccc1)c1ccccc1` (centres unmarked) [Prenylamine, reference compound], the ED50 in data set [1] was found to be 6.5 mg/kg. In data set [2], `CSc1nc2n(n1)C(=S)N(C)NC1(CCCCC1)N2` [Example 47, 6-Methyl-2-methylthio-5,6,8,9-tetrahydro[1,2,4]-triazolo[1,5-d][1,2,4,6]tetrazepine-5(7H)-thione-8-spiro-1'-cyclohexane] displayed a 50% effective dose (ED50) of 200 mg/kg and a Therapeutical index of 10.0.

In the case of `COc1cc(C=NN(C)C(=S)n2nc(SC)nc2N)ccc1O` [Example 22, 1-(5-Amino-3-methylthio-1H-1,2,4-triazol-1-yl)-N-methyl-N'-(4-hydroxy-3-methoxybenzylidene)carbothiohydrazide], in data set [2], the ED50 worked out at 110 mg/kg and the Therapeutical index turned out to be 5.1.

Consider `CCOC(=O)CCC1(C)Nc2nc(N3CCOCC3)nn2C(=S)N(C)N1` (centres unmarked) [Example 58, 6,8-Dimethyl-8-(ethoxycarbonyl-ethyl)-2-morpholino-5,6,8,9-tetrahydro[1,2,4]triazolo[1,5-d][1,2,4,6]-tetrazepine-5(7H)-thione], for which, in data set [2], the ED50 was 160 mg/kg and the Therapeutical index is 12.5. In data set [2], `CN(N=Cc1c(Cl)cccc1Cl)C(=S)n1nc(N2CCOCC2)nc1N` [Example 5, 1-(5-Amino-3-morpholino-1H-1,2,4-triazol-1-yl)-N-methyl-N'-(2,6-dichlorobenzylidene)carbothiohydrazide] came in with an ED50 of 36 mg/kg and a Therapeutical index of 27.8.

Consider `CCCC(C)(COC(N)=O)COC(N)=O` [Meprobamate, reference compound], for which, in data set [2], it took a dose of 270 mg/kg to reach the 50% effect level (ED50) and the Therapeutical index amounted to 4.1. As to `CN1NC2(CCCCCCCCCCC2)Nc2nc(N3CCOCC3)nn2C1=S` [Example 53, 6-Methyl-2-morpholino-5,6,8,9-tetrahydro-1,2,4-triazolo[1,5-d][1,2,4,6]tetrazepine-5(7H)-thione-8-spiro-1'-cyclododecane], the ED50 in data set [1] is 1 mg/kg; in data set [2] it was 41 mg/kg. Moreover, the Therapeutical index in data set [2] came out at 48.8. In data set [2], `CC1Nc2nc(N3CCOCC3)nn2C(=S)N(C)N1` (centres unmarked) [Example 41, 6,8-Dimethyl-2-morpholino-5,6,8,9-tetrahydro[1,2,4]-triazolo-[1,5-d][1,2,4,6]tetrazepine-5(7H)-thione] came in with an ED50 of 200 mg/kg and a Therapeutical index of 10.0. Compound `CN1NC2(CCCC2)Nc2nc(N3CCOCC3)nn2C1=S` [Example 48, 6-Methyl-2-morpholino-5,6,8,9-tetrahydro[1,2,4]-triazolo[1,5-d][1,2,4,6]tetrazepine-5(7H)-thione-8-spiro-1'-cyclopentane] showed an ED50 in data set [1] of 1.35 mg/kg. In data set [2], `CN(N=Cc1ccc(OCC(N)=O)cc1)C(=S)n1nc(N2CCOCC2)nc1N` [Example 7, 1-(5-Amino-3-morpholino-1H-1,2,4-triazol-1-yl)-N-methyl-N'-(4-carbamoylmethoxybenzylidene)carbothiohydrazide] gave an ED50 of 110 mg/kg and a Therapeutical index of 9.1. In data set [1], `COC(=O)CC1(C)Nc2nc(SC)nn2C(=S)N(C)N1` (centres unmarked) [Example 57, 6,8-Dimethyl-8-methoxycarbonyl-methyl-2-methylthio-5,6,8,9tetrahydro[1,2,4]triazolo[1,5-d][1,2,4,6]-tetrazepine-5(7H)-thione] displayed a median effective dose (ED50) of 1.65 mg/kg.
